In the supplement of paper PMC4862054:

Columns and labels:
Conditions in all cases: incubation time: 72 h
MDA-MB-453 [1] = test: normalised response (% of control), CellTox Green; higher = less cell death (100 = DMSO, 0 = benzethonium chloride kill control)
In short: (§1)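 CellTox Green fluorescence (485/520 nm) and, after 10 min at room temperature, CellTiter-Glo luminescence were read from breast cancer cell lines incubated 72 h in 384-well plates. Cells were seeded as 20 µl suspension onto compound at 5 concentrations in 10-fold steps over a 10,000-fold range chosen per compound. Each plate was normalised to 0.1 % DMSO (100) and a positive kill control (0). Values are normalised signals, one per concentration.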

CAL-120 [2] = test: as above
In short: as §1

HCC1143 [3] = test: as above
In short: as §1

MFM-223 [4] = test: as above
In short: as §1

BT-549 [5] = test: as above
In short: as §1

HCC1937 [6] = test: as above
In short: as §1

MDA-MB-231 [7] = test: as above
In short: as §1

DU-4475 [8] = test: as above
In short: as §1

HCC1599 [9] = test: as above
In short: as §1

MDA-MB-436 [10] = test: as above
In short: as §1

MCF-10A [11] = test: as above
In short: as §1

BT-474 [12] = test: as above
In short: as §1

MDA-MB-468 [13] = test: as above
In short: as §1

CAL-85-1 [14] = test: as above
In short: as §1

CAL-51 [15] = test: as above
In short: as §1

CAL-148 [16] = test: as above
In short: as §1

HDQ-P1 [17] = test: as above
In short: as §1

MDA-MB-453 [18] = test: normalised response (% of control), CellTiter-Glo; higher = more viable cells (100 = DMSO, 0 = benzethonium chloride kill control)
Procedure: (§2)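 DSRT, 72 h incubation, CellTox Green / CellTiter-Glo readout. Signal is normalised to DMSO and benzethonium chloride controls. Value is the normalised response at the highest dose.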

CAL-120 [19] = test: as above
Procedure: as §2

HCC1143 [20] = test: as above
Procedure: as §2

MFM-223 [21] = test: as above
Procedure: as §2

BT-549 [22] = test: as above
Procedure: as §2

HCC1937 [23] = test: as above
Procedure: as §2

MDA-MB-231 [24] = test: as above
Procedure: as §2

DU-4475 [25] = test: as above
Procedure: as §2

HCC1599 [26] = test: as above
Procedure: as §2

MDA-MB-436 [27] = test: as above
Procedure: as §2

MCF-10A [28] = test: as above
Procedure: as §2

BT-474 [29] = test: as above
Procedure: as §2

MDA-MB-468 [30] = test: as above
Procedure: as §2

CAL-85-1 [31] = test: as above
Procedure: as §2

SK-BR-3 = test: as above
Procedure: as §2

CAL-51 [32] = test: as above
Procedure: as §2

CAL-148 [33] = test: as above
Procedure: as §2

HDQ-P1 [34] = test: as above
Procedure: as §2

Hs578T [35] = test: as above
Procedure: as §2

Hs578T [36] = test: normalised response (% of control), CellTox Green; higher = less cell death (100 = DMSO, 0 = benzethonium chloride kill control)
In short: as §1

Row | SMILES | normalised response (MDA-MB-453 [1]) [%] | normalised response (CAL-120 [2]) [%] | normalised response (HCC1143 [3]) [%] | normalised response (MFM-223 [4]) [%] | normalised response (BT-549 [5]) [%] | normalised response (HCC1937 [6]) [%] | normalised response (MDA-MB-231 [7]) [%] | normalised response (DU-4475 [8]) [%] | normalised response (HCC1599 [9]) [%] | normalised response (MDA-MB-436 [10]) [%] | normalised response (MCF-10A [11]) [%] | normalised response (BT-474 [12]) [%] | normalised response (MDA-MB-468 [13]) [%] | normalised response (CAL-85-1 [14]) [%] | normalised response (CAL-51 [15]) [%] | normalised response (CAL-148 [16]) [%] | normalised response (HDQ-P1 [17]) [%] | normalised response (MDA-MB-453 [18]) [%] | normalised response (CAL-120 [19]) [%] | normalised response (HCC1143 [20]) [%] | normalised response (MFM-223 [21]) [%] | normalised response (BT-549 [22]) [%] | normalised response (HCC1937 [23]) [%] | normalised response (MDA-MB-231 [24]) [%] | normalised response (DU-4475 [25]) [%] | normalised response (HCC1599 [26]) [%] | normalised response (MDA-MB-436 [27]) [%] | normalised response (MCF-10A [28]) [%] | normalised response (BT-474 [29]) [%] | normalised response (MDA-MB-468 [30]) [%] | normalised response (CAL-85-1 [31]) [%] | normalised response (SK-BR-3) [%] | normalised response (CAL-51 [32]) [%] | normalised response (CAL-148 [33]) [%] | normalised response (HDQ-P1 [34]) [%] | normalised response (Hs578T [35]) [%] | normalised response (Hs578T [36]) [%]
1 | CC(C)(C)Cn1c(N)nc2ccc(-c3[nH]c(C(C)(C)C)nc3-c3ccc(F)cc3)nc21 (10000 nM) | 93.9 | 93.6 | 87.1 | 86.6 | 90.9 | 92.4 | 47.1 | 95.7 | 85.6 | 71.1 | 89.3 | 89.8 | 107 | 41.5 | 104 | 98.9 | 100 | 77.3 | 89.3 | 86.1 | 63.7 | 76.4 | 65.3 | 67.2 | 99.4 | 78.1 | 82.1 | 43.6 | 66.4 | 37 | 64.9 | 62.7 | 104 | 94.7 | 70.7 | 94.1 | 
2 | Cn1cc(C[C@@H](N)C(=O)O)c2ccccc21 [1-methyl-D-tryptophan] (5000 nM) | 99.9 | 99.4 | 124 | 103 | 90 | 106 | 99.5 | 96.5 | 98 | 93.1 | 90.3 | 99.7 | 53 | 106 | 102 | 105 | 60.4 | 91.4 | 101 | 102 | 92.5 | 97.8 | 99.5 | 95.7 | 92.9 | 87.9 | 95.1 | 97.4 | 96.4 | 96.7 | 98.3 | 93.2 | 107 | 85.7 | 111 | 97 | 101
3 | CC[C@H](CC#N)OC(=O)N[C@@H](C)c1cccc(NC(=O)Nc2ccc(-c3cnco3)c(OC)c2)c1 [AVN944] (10000 nM) | 107 | 102 | 105 | 100 | 88.5 | 96.6 | 110 | 89.2 | 97.1 | 97.9 | 85.2 | 96.4 | 124 | 101 | 78.9 | 67.1 | 94.6 | 62.3 | 50.6 | 31.5 | 49.7 | 27 | 42.2 | 47 | 15.7 | 33.4 | 38.1 | 58.9 | 48.8 | 30 | 38.4 | 37.1 | 19 | 41.4 | 42.3 | 35.4 | 48
4 | CCc1cnn2c(NCc3ccc[n+]([O-])c3)cc(N3CCCC[C@H]3CCO)nc12 [Dinaciclib] (1000 nM) | 88.2 | 80.6 | 88.2 | 42.2 | 81.4 | 83.6 | -18.6 | 90.4 | 74.5 | 86.5 | 47.1 | 88.3 | 31.8 | 4.91 | 71.8 | 46.3 | 48.4 | 20.6 | 38.1 | 19.3 | 11.5 | 14 | 27.8 | 6.98 | 21.8 | 12.3 | 19.3 | 21.3 | 20.2 | 6.62 | 8.86 | 2.06 | 14.3 | 67.5 | 23 | 17.1 | 36.3
